Test results reported in article PMC9610465, “The Inhibition of α-Glucosidase, α-Amylase and Protein Glycation by Phenolic Extracts of Cotoneaster bullatus, Cotoneaster zabelii, and Cotoneaster integerrimus Leaves and Fruits: Focus on Anti-Hyperglycemic Activity and Kinetic Parameters” (Molecules, 2022).
≈ marks a conversion by molar mass, not a printed value.

Experiments:
α-glucosidase = details: cited from earlier work
[1] = test system: bovine serum albumin (BSA); assay: Protein glycation inhibitory assay (BSA–fructose model); format: biochemical
Protocol: The ability of the plant extracts/compounds to inhibit fructose-induced protein glycation was determined according to a method previously published with minor modifications. […] Briefly, fructose solution (600 µL) was mixed with BSA (600 µL) and 600 µL tested extracts/compounds at different concentrations and then the reaction mixture was incubated in the capped amber vials in the dark at 37 °C for six days.

α-amylase = details: earlier studies; cited from earlier work
[2] = target: T1, Porcine pancreatic α-amylase (Sus scrofa, UniProt P00690); assay: α-Amylase inhibitory assay (potato starch, DNS); format: biochemical; details: mean ± SD (n = 3)
T1 construct: purchased Sigma-Aldrich
T1 sequence (P00690 16-511): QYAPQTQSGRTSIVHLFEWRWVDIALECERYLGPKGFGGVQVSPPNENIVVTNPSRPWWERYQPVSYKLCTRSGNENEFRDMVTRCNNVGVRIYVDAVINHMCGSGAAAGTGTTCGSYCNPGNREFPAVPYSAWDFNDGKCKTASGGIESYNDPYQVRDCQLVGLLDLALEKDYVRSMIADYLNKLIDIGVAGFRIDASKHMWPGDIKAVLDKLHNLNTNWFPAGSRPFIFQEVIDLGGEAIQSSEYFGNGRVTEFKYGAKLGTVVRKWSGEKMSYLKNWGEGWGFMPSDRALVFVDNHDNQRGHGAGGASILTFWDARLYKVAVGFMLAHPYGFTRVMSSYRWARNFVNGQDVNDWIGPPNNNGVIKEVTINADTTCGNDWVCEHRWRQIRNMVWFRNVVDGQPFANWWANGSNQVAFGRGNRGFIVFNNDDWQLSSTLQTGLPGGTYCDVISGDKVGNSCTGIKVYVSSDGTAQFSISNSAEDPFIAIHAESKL

[3] = BSA–fructose model, 37 °C, six days, mean ± SD (n = 3)

IC50 [2] [µM] | Compound | type of α-glucosidase inhibition (α-glucosidase) | IC50 Protein Glycation [1, 3] | further results
 | Oc1cc(O)c2c(c1)O[C@H](c1ccc(O)c(O)c1)[C@@H](O)C2 [(+)-catechin] | mixed-type inhibitors |  | 
 | N=C(N)NN [AG, aminoguanidine] |  | 71.09 ± 4.20 ^D µg/mL | IC50 Protein Glycation ([1]; BSA–fructose model, 37 °C, six days, mean ± SD (n = 3), listed as aminoguanidine): 71.1 µg/mL (≈ 960 µM)
 | C[C@H]1O[C@H](O[C@H]2[C@H](O)[C@@H](O)[C@@H](O[C@H]3[C@H](O)[C@@H](O)C(O)O[C@@H]3CO)O[C@@H]2CO)[C@H](O)[C@@H](O)[C@@H]1N[C@H]1C=C(CO)[C@@H](O)[C@H](O)[C@H]1O (stereo partly shown) [AR, acarbose] | competitively interacts |  | type of α-amylase inhibition (α-amylase): mixed type
 | Oc1cc(O)c2c(c1)O[C@H](c1ccc(O)c(O)c1)[C@@H](O)[C@@H]2c1c(O)cc(O)c2c1O[C@H](c1ccc(O)c(O)c1)[C@@H](O)C2 [B3] |  |  | type of interaction with α-glucosidase (α-glucosidase): noncompetitive interaction
> 1350 | O=C(O)CC(OC(=O)/C=C/c1ccc(O)c(O)c1)C(=O)O (stereo not shown) [CAD, caffeoylmalic acid] |  |  | IC50 Protein Glycation ([1]; bovine, 6 days, pH 7.4): 17.26 ± 1.09 ^B µg/mL
> 689 | Oc1cc(O)c2c(c1)O[C@H](c1ccc(O)c(O)c1)[C@H](O)C2 [ECA, (–)-epicatechin] | mixed-type inhibitors | 8.79 ± 0.13 ^A, B µg/mL | 
> 861 | O=c1c(O[C@@H]2O[C@H](CO)[C@H](O)[C@H](O)[C@H]2O)c(-c2ccc(O)c(O)c2)oc2cc(O)cc(O)c12 [HP, hyperoside] |  | 14.34 ± 1.15 ^A, B µg/mL | 
> 346 | Oc1cc(O)c2c(c1)O[C@H](c1ccc(O)c(O)c1)[C@H](O)[C@H]2c1c(O)cc(O)c2c1O[C@H](c1ccc(O)c(O)c1)[C@H](O)C2 [PB2, procyanidin B2] |  |  | type of interaction with α-glucosidase (α-glucosidase): noncompetitive interaction; IC50 Protein Glycation ([1]; bovine, 6 days, pH 7.4): 2.20 ± 0.01 ^A µg/mL
 | O=c1c(O[C@@H]2O[C@H](CO)[C@H](O)[C@H](O)[C@H]2O[C@@H]2OC[C@@H](O)[C@H](O)[C@H]2O)c(-c2ccc(O)c(O)c2)oc2cc(O)cc(O)c12 [QPH, quercetin 3-O-β-D-(2″-O-β-D-xylopyranosyl)galactopyranoside] |  | 15.78 ± 1.14 ^A, B µg/mL | IC50 α-Amylase [2]: >400 µg/mL
 | C[C@@H]1O[C@@H](OC[C@H]2O[C@@H](Oc3c(-c4ccc(O)c(O)c4)oc4cc(O)cc(O)c4c3=O)[C@H](O)[C@@H](O)[C@@H]2O)[C@H](O)[C@H](O)[C@H]1O [rutin] | mixed type |  | 
